# From patent publication US20140366440A1, “METHOD FOR PRODUCING CLONE SEEDLINGS” (OKAYAMA PREFECTURE, priority 2009, published 2014)
# Tested on: E. uro-grandis A
# Assay: Rooting of cuttings, oxidized glutathione solution sprayed to supporter
# Type: in vivo, crossbreed of eucalyptus urophylla and eucalyptus grandis
# Settings: three weeks
# Description: A crossbreed of eucalyptus urophylla and eucalyptus grandis (hereinafter, abbreviated as an “E. uro-grandis”) (Line name: A) was used as a material of a cutting. Specifically, a graft grown to have a length of about 5 cm to 20 cm, about one to three joints, and about two to six leaves was cut out from a mother tree, and a tip of each leaf was cut off by cutting off about a half from the tip thereof. In this way, the cutting was prepared.
# A composite soil of carbonized chaff, coconut fiber, and vermiculite which had been put into a seedling pot (3 cm in inner diameter×15 cm in height) in advance was used as a supporter. Oxidized glutathione was dissolved in water so that an oxidized glutathione concentration became 50 mg/L. The oxidized glutathione solution was thus prepared. The oxidized glutathione solution was sprayed to the seedling pot from the above by use of a watering can so that the supporter was soaked with the oxidized glutathione solution (50 mg/L) by spraying a spray amount of water of about 8.5 ml of the oxidized glutathione solution per seedling pot. Thereafter, a base of the cutting was planted to the supporter. After this planting, the cutting was bred for three weeks in a green house which shielded sunlight by 50%. In the green house, a high humidity (80% or more) was kept by frequently spraying mist. After three weeks from the planting, a rooting ratio was calculated from the number of rooted cuttings.
# A seedling was bred in the same way as Example 4, except that a solution having an oxidized glutathione concentration of 200 mg/L was used as the oxidized glutathione solution.
# A seedling was bred in the same way as Example 4, except that a solution having an oxidized glutathione concentration of 500 mg/L was used as the oxidized glutathione solution.
# A seedling was bred in the same way as Example 4, except that a solution having an oxidized glutathione concentration of 1000 mg/L was used as the oxidized glutathione solution.
substance,measurement,setting,value
oxidized glutathione,Rooting rate (%),"Example 4: 50 mg/L solution, spraying to supporter (about 8.5 ml per pot), 44 test pieces",75.0%
same,Number of rooted shoots,"Example 4: 50 mg/L, spraying to supporter, of 44 test pieces",33
same,Rooting rate (%),"Example 5: 200 mg/L, spraying to supporter, 44 test pieces",77.3%
same,Number of rooted shoots,"Example 5: 200 mg/L, spraying to supporter, of 44 test pieces",34
same,Rooting rate (%),"Example 6: 500 mg/L, spraying to supporter, 44 test pieces",84.1%
same,Number of rooted shoots,"Example 6: 500 mg/L, spraying to supporter, of 44 test pieces",37
same,Rooting rate (%),"Example 7: 1000 mg/L, spraying to supporter, 176 test pieces",72.7%
same,Number of rooted shoots,"Example 7: 1000 mg/L, spraying to supporter, of 176 test pieces",128
